Measured values: article PMC7277544, “A Fluorescence-Based Method to Measure ADP/ATP Exchange of Recombinant Adenine Nucleotide Translocase in Liposomes” (Biomolecules, 2020)

Molecular target: T1, adenine nucleotide translocase 1 (ANT1) (Mus musculus, UniProt P48962)
T1 construct: gene Slc25a4; recombinant murine ANT1 from E. coli inclusion bodies, reconstituted into liposomes
T1 sequence (P48962 2-298): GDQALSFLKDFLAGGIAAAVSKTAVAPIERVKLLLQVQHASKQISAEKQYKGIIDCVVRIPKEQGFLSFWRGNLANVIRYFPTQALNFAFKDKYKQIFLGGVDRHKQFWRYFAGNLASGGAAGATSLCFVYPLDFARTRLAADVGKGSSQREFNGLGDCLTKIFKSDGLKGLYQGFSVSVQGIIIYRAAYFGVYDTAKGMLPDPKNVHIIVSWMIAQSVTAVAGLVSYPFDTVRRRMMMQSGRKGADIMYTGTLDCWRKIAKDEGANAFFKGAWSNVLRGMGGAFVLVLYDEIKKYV
Assay: 3H-ATP uptake into ANT1 proteoliposomes (transport rate)
Format: biochemical

Nc1ncnc2c1ncn2[C@@H]1O[C@H](COP(=O)(O)OP(=O)(O)OP(=O)(O)O)[C@@H](O)[C@H]1O [ATP, adenosine triphosphate]
3H-ATP uptake into ANT1 proteoliposomes (transport rate): 2.90 ± 0.47 mmol/min/g
